Experimental data: patent publication EP3246013A1, “INHIBITION OF THE ADHESION OF MICROORGANISMS PATHOGENATED BY A STEARATE AND/OR SORBITAN SUCROSE IN THE COSMETIC TREATMENT OF ATOPIC DERMATITIS” (priority 2012, dated 2014)

What was measured:
[1] = test system: Staphylococcus aureus; test: In vitro inhibition of adhesion of S. aureus on a solid support (glass chamber slide), crystal violet staining and automatic counting; format: cell-based; details: for Nombre de cellules par champ: adhesion to glass slide, mean of three fields ± SD, water control 99 ± 11; for inhibition de l'adhésion (% par rapport au témoin eau): glass slide
Procedure: Le protocole suivant est mis en oeuvre : • Une préculture de S. aureus issue du laboratoire de bactériologie clinique de l'hôpital de la Timone (CIP 65-8) est réalisée dans du milieu 'Nutrient Broth N° 2' (Oxoid), pendant 12h, à 37°C; • La culture est centrifugée à 9 000 g, pendant 10 min et le culot bactérien est remis en suspension dans un tampon phosphate (PBS); • A partir de cette suspension, une dilution au 1/50 est réalisée dans une solution aqueuse ou une solution aqueuse contenant le composé polyhydroxylé à tester. Il s'agit soit du xylitol, soit du sucrostéarate HLB 16 (SURFHOPE™ C1816); • Les bactéries sont préincubées en présence du composé polyhydroxylé à tester pendant 45 min, à 37 °C; • Le mélange (100 µl) est ensuite déposé dans un puits d'une lame cytologique en verre, de surface fixe (0,8 cm^2) et délimitée par des parois, c'est-à-dire une lame adaptée à la culture cellulaire (Chamber Slide System, Labtek); • Les cultures bactériennes sont ensuite incubées à 37°C, pendant 60 min et ultérieurement rincées délicatement avec de l'eau ultra pure, ce qui permet d'éliminer les bactéries n'ayant pas adhéré à la surface du puits de la lame; • Les bactéries ayant adhéré dans chaque puits sont par la suite colorées par le cristal violet pendant 10 secondes, puis rincées et séchées pendant 12h, à 25°C; • Les bactéries sont enfin observées à l'aide d'un microscope optique, par grossissement x 1000, en immersion, les champs étant parfaitement homogènes; • Un comptage automatique des bactéries dans chaque puits est finalement réalisé à l'aide d'un logiciel approprié.
Selon ce protocole, l'effet des composés polyhydroxylés a été analysé pour l'activité d'inhibition de l'adhésion de S. aureus sur le support solide. Le xylitol à une concentration finale de 0,5% et le sucrostéarate HLB 16 (sucrose monostéarate, SURFHOPE C18-C16) à une concentration finale de 1% ont été testés. Tableau 1 : Effets du xylitol (0,5%) et du sucrostéarate HLB 16 (1%) sur l'adhésion de S. aureus à la surface des lames de verre. Les résultats correspondent à une moyenne du comptage de trois champs, qui est présentée avec l'écart type correspondant.

[2] = test system: S. aureus; test: Ex vivo inhibition of adhesion of S. aureus on human corneocytes (D-Squame discs), crystal violet staining and image counting; format: cell-based, Staphylococcus aureus; details: for Inhibition de l'adhésion de S. aureus (%) Essai 1 / Inhibition de l'adhésion de S. aureus (%) Essai 2: human corneocytes; for Inhibition de l'adhésion de S. aureus (%) Essai 1: trial 1; for Inhibition de l'adhésion de S. aureus (%) Essai 2: trial 2
Procedure: Afin de corroborer les résultats obtenus in vitro, un test d'adhésion ex vivo sur des cornéocytes humains a été mis au point d'après la méthode réalisée chez le chien (McEwan et al., 2005).
La souche clinique de S. aureus (CIP 65-8) a été prélevée sur un patient, au sein du laboratoire de bactériologie clinique de l'hôpital de la Timone à Marseille.
La souche de S. aureus est inoculée dans 10 ml de milieu 'Nutrient Broth N° 2' (Oxoid) et incubée sous agitation à 37°C pendant 12 heures. Les bactéries sont collectées par centrifugation et le culot bactérien est remis en suspension dans un tampon phosphate PBS. La population bactérienne est ajustée approximativement à 10^6 CFU/ml avec de l'eau osmosée.
Des zones cibles sont délimitées sur chaque bras d'un volontaire humain. Pour chaque zone, les débris cutanés sont éliminés grâce à 5 « pré-strippings » successifs avec des disques Sellotape™Original (diamètre 22 mm). Les cornéocytes sont ensuite collectés sur chaque zone cible à l'aide de disques adhésifs D-Squame™ (diamètre 22 mm) et d'un applicateur de disque D-Squame réglé à la pression de 150 g/cm^2.
Les disques sont ensuite placés dans des boîtes de Pétri, de diamètre 35 mm. Les disques sont alors recouverts par 0,5 ml d'eau ou 0,5 ml de la solution de S. aureus à 10^6 CFU/ml, contenant le composé polyhydroxylé à tester, à raison de trois zones pour chacun d'entre eux.
Les composés polyhydroxylés testés avec ce protocole expérimental sont : • le xylitol, à une concentration finale de 0,5%; • le sucrose stéarate HLB 16 (sucrose monostéarate, SURFHOPE C1816,), à une concentration finale de 1%, • le sucrose laurate monoester (SURFHOPE C1216), à une concentration finale de 0,1 %, • le polysorbate 60, à une concentration finale de 0,1%, • le polysorbate 60, à une concentration finale de 1%, • le polysorbate 20, à une concentration finale de 0,1%,
Toutes les solutions sont préparées dans de l'eau et mises en contact avec S. aureus à température ambiante 45 min avant le début de l'expérience d'adhésion. Les boites sont ensuite incubées à 37°C pendant 60 min. Les disques sont alors rincés avec de l'eau osmosée, ce qui permet d'éliminer les bactéries n'ayant pas adhéré aux cornéocytes. Les bactéries ayant adhéré aux cornéocytes humains sont alors colorées par du cristal violet oxalaté pendant 10 secondes. Les disques sont enfin rincés avec de l'eau osmosée, placés sur une lame de microscope et séchés à l'air libre pendant 24 h.
Les images des bactéries adhérentes sont acquises à l'aide d'un microscope Olympus BX 53 couplé à une caméra numérique. Les images collectées sont ensuite analysées par le logiciel UTHSCSA Image Tool (Reindeer Graphics Inc.). Le nombre de bactéries par disque est calculé par une moyenne arithmétique de 10 à 12 images, ce qui correspond à la surface d'environ 100 cornéocytes. Les comparaisons entre différentes moyennes sont effectuées avec le logiciel Statgraphics Plus (Manugistics Inc.).

For “sucrose monostéarate [Sucrostéarate HLB 16]”, the “Nombre de cellules par champ” value ([1]; final concentration 1%) was 12 ± 1, the “inhibition de l'adhésion (% par rapport au témoin eau)” value ([1]; final concentration 1%) was 88% and the “inhibition de l'adhésion de S. aureus à la surface des lames de verre” value ([1]; text conclusion in words, 1%) was “forte inhibition”. The “activité inhibitrice (adhésion de S. aureus sur les cornéocytes)” value ([2]; final concentration 1%) was at least 50%, the “Inhibition de l'adhésion de S. aureus (%) Essai 1” value ([2]; final concentration 1%) was 57,0% and the “Inhibition de l'adhésion de S. aureus (%) Essai 2” value ([2]; final concentration 1%) was 49,6%.

With “sucrose laurate monoester [reference compound]” the “effet sur l'adhésion de S. aureus sur les cornéocytes” value ([2]; final concentration 0,1%) was “augmentation significative de l'adhésion” and the “Inhibition de l'adhésion de S. aureus (%) Essai 1” value ([2]; final concentration 0,1%) was -22.8%.

In the case of OC[C@@H](O)[C@H](O)[C@@H](O)CO [Xylitol, xylitol, reference compound], the “Nombre de cellules par champ” value ([1]; final concentration 0,5%) is reported as 91 ± 6, the “inhibition de l'adhésion (% par rapport au témoin eau)” value ([1]; final concentration 0,5%) is reported as 8% and the “effet inhibiteur sur l'adhésion de S. aureus sur les cornéocytes” value ([2]; final concentration 0,5%) is reported as about 20%. For the same compound, the “Inhibition de l'adhésion de S. aureus (%) Essai 1” value ([2]; final concentration 0,5%) was 21,0% and the “Inhibition de l'adhésion de S. aureus (%) Essai 2” value ([2]; final concentration 0,5%) was 20,2%.

With “monostéarate de sorbitan polyoxyethylène 20 [Polysorbate 60]” the “effet sur l'adhésion de S. aureus sur les cornéocytes” value ([2]; final concentration 0,1%) was “résultats très satisfaisants”, the “Inhibition de l'adhésion de S. aureus (%) Essai 1” value ([2]; final concentration 0,1%) was 39,8% and the “activité inhibitrice (adhésion de S. aureus sur les cornéocytes)” value ([2]; final concentration 1%) was at least 50%. The “Inhibition de l'adhésion de S. aureus (%) Essai 1” value ([2]; final concentration 1%) was 54%.

“monolaurate de sorbitan ethoxylé [Polysorbate 20]” was tested, and the “effet sur l'adhésion de S. aureus sur les cornéocytes” value ([2]; final concentration 0,1%) was “résultats très satisfaisants” and the “Inhibition de l'adhésion de S. aureus (%) Essai 1” value ([2]; final concentration 0,1%) was 57%.
